Assay results reported in patent publication US20230104936A1, “TRPML MODULATORS” (Casma Therapeutics, Inc., priority 2019, published 2023).

System: TFEB
Assay: TFEB nuclear translocation assay, HeLa wt cells
Type: cell-based
Settings: 2 hrs compound treatment, Table 1 does not say HeLa wt or TRPML1 KO
In short: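 Cells are plated overnight, exposed to compounds for 2 hrs at 37° C, fixed with 4% PFA, blocked, and stained overnight at 4° C with rabbit anti-TFEB. After Alexa 488 secondary and Hoechst, nuclei and a perinuclear ring are segmented to give a nuclear:ring intensity ratio and AC50.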

`O=C(c1ccc(S(=O)(=O)Nc2ccccc2N2CCC(c3ccc(Cl)cc3F)CC2)cc1)N1CCCC1` [Compound A-49, N-{2-[4-(4-chloro-2-fluorophenyl)piperidin-1-yl]phenyl}-4-(pyrrolidine-1-carbonyl)benzene-1-sulfonamide] gave an AC50 (Homo sapiens, HeLa, 2 h) of no less than 10000 nM.

For `COc1ccc(Cl)cc1CS(=O)(=O)Nc1ccccc1N1CCN(C(=O)C(C)(C)C)CC1` [Compound A-563, 1-(5-chloro-2-methoxyphenyl)-N-{2-[4-(2,2-dimethylpropanoyl)piperazin-1-yl]phenyl}methanesulfonamide], the AC50 (Homo sapiens, HeLa, 2 h) was no less than 10000 nM.

`CN(C)S(=O)(=O)c1ccc(S(=O)(=O)Nc2ccccc2N2CCC(O)(c3cc(Br)ncc3F)CC2)cc1` [Compound A-210, N4-{2-[4-(2-bromo-5-fluoropyridin-4-yl)-4-hydroxypiperidin-1-yl]phenyl}-N1,N1-dimethylbenzene-1,4-disulfonamide] showed an AC50 (Homo sapiens, HeLa, 2 h) of no more than 2000 nM.

`O=S(=O)(Nc1cc(Cl)ccc1N1CCC2(CCCO2)CC1)c1ccc2c(c1)CCC2` [Compound A-328, N-(5-chloro-2-{1-oxa-8-azaspiro[4.5]decan-8-yl}phenyl)-2,3-dihydro-1H-indene-5-sulfonamide] gave an AC50 (Homo sapiens, HeLa, 2 h) of no less than 10000 nM.

`COCC1(C)CCN(c2ccccc2NS(=O)(=O)Cc2ccc3c(c2)COC3)CC1` [Compound A-612, 1-(1,3-dihydro-2-benzofuran-5-yl)-N-{2-[4-(methoxymethyl)-4-methylpiperidin-1-yl]phenyl}methanesulfonamide] was tested, and the AC50 (Homo sapiens, HeLa, 2 h) was 2010 to 8000 nM.

Compound `COC1Cc2ccc(S(=O)(=O)Nc3ccccc3N3CCC4(CC3)COC(C)(C)C4)cc2C1` (stereo not drawn) [Compound A-659, N-(2-{3,3-dimethyl-2-oxa-8-azaspiro[4.5]decan-8-yl]phenyl)-2-methoxy-2,3-dihydro-1H-indene-5-sulfonamide] has an AC50 (Homo sapiens, HeLa, 2 h) of 2010 to 8000 nM.

With `COCC1(C)CCN(c2ccc(OC)cc2NS(=O)(=O)c2ccc3c(c2)CCC3)CC1` [Compound A-630, N-{5-methoxy-2-[4-(methoxymethyl)-4-methylpiperidin-1-yl]phenyl}-2,3-dihydro-1H-indene-5-sulfonamide] the AC50 (Homo sapiens, HeLa, 2 h) was no more than 2000 nM.

`Cc1cc(NS(=O)(=O)c2ccc3c(c2)CCC3)c(Cl)c(N2CCOCC2)c1` [Compound A-823, N-[2-chloro-5-methyl-3-(morpholin-4-yl)phenyl]-2,3-dihydro-1H-indene-5-sulfonamide] was tested, and the AC50 (Homo sapiens, HeLa, 2 h) was no less than 10000 nM.

For `CCOC(=O)N1CCN(c2ccccc2NS(=O)(=O)c2ccc(S(=O)(=O)N(C)C)cc2)CC1` [Compound A-308, ethyl 4-{2-[4-(dimethylsulfamoyl)benzenesulfonamido]phenyl}piperazine-1-carboxylate], the AC50 (Homo sapiens, HeLa, 2 h) was 2010 to 8000 nM.

`CC1(C)CC2(CCN(c3ccccc3NS(=O)(=O)Cc3cccc(F)c3)CC2)CO1` [Compound A-668, N-(2-{3,3-dimethyl-2-oxa-8-azaspiro[4.5]decan-8-yl}phenyl)-1-(3-fluorophenyl)methanesulfonamide] showed an AC50 (Homo sapiens, HeLa, 2 h) of 2010 to 8000 nM.

Compound `O=S(=O)(Nc1cccc(Cl)c1N1CCOCC1)c1cccc(C2CC2)c1` [Compound A-390, N-[3-chloro-2-(morpholin-4-yl)phenyl]-3-cyclopropylbenzene-1-sulfonamide] has an AC50 (Homo sapiens, HeLa, 2 h) of no more than 2000 nM.

`CN(C)S(=O)(=O)c1ccc(S(=O)(=O)Nc2ccccc2N2CCN(C(=O)C(C)(F)F)CC2)cc1` [Compound A-446, N4-{2-[4-(2,2-difluoropropanoyl)piperazin-1-yl]phenyl}-N1,N1-dimethylbenzene-1,4-disulfonamide] was tested, and the AC50 (Homo sapiens, HeLa, 2 h) was 2010 to 8000 nM.

`CS(=O)(=O)c1ccc(S(=O)(=O)Nc2ccccc2N2CCC3(CC2)OCc2cc(F)ccc23)cc1` [Compound A-332, N-(2-{5-fluoro-3H-spiro[2-benzofuran-1,4′-piperidin]-1′-yl}phenyl)-4-methanesulfonylbenzene-1-sulfonamide] gave an AC50 (Homo sapiens, HeLa, 2 h) of 2010 to 8000 nM.

Work on `CN(C)S(=O)(=O)c1ccc(S(=O)(=O)Nc2ccccc2N2CCC(O)(C3CC3)CC2)cc1` [Compound A-420, N4-[2-(4-cyclopropyl-4-hydroxypiperidin-1-yl)phenyl]-N1,N1-dimethylbenzene-1,4-disulfonamide] yielded an AC50 (Homo sapiens, HeLa, 2 h) of 2010 to 8000 nM.

With `Cc1ccc(S(=O)(=O)Nc2ccccc2N2CCN(C(=O)C(C)c3ccccc3)CC2)cc1` (stereo not drawn) [Compound A-334, 4-methyl-N-{2-[4-(2-phenylpropanoyl)piperazin-1-yl]phenyl}benzene-1-sulfonamide] the AC50 (Homo sapiens, HeLa, 2 h) was 2010 to 8000 nM.

`CC1(C)CC2(CCN(c3ccccc3NS(=O)(=O)c3ccc4c(c3)OC3(CCC3)O4)CC2)CO1` [Compound A-723, N-(2-{3,3-dimethyl-2-oxa-8-azaspiro[4.5]decan-8-yl}phenyl)spiro[1,3-benzodioxole-2,1′-cyclobutane]-6-sulfonamide] showed an AC50 (Homo sapiens, HeLa, 2 h) of no more than 2000 nM.

In the case of `O=S(=O)(Nc1ccccc1N1CCC(c2ccc(Cl)cc2F)CC1)c1ccc(C(F)(F)F)cc1` [Compound A-83, N-{2-[4-(4-chloro-2-fluorophenyl)piperidin-1-yl]phenyl}-4-(trifluoromethyl)benzene-1-sulfonamide], the AC50 (Homo sapiens, HeLa, 2 h) is reported as no more than 2000 nM.

Work on `CC(c1cccc(F)c1N1CCC(C)(C(F)F)CC1)S(=O)(=O)c1ccc(S(=N)(=O)N(C)C)cc1` (single isomer, unassigned) [Compound A-975, 4-((1-(2-(4-(difluoromethyl)-4-methylpiperidin-1-yl)-3-fluorophenyl)ethyl)sulfonyl)-N,N-dimethylbenzenesulfonimidamide] yielded an AC50 of no less than 10000 nM.

Compound `C[C@H](c1cccc(F)c1N1CCCCC1)S(=O)(=O)c1ccc(S(=N)(=O)N(C)C)cc1` (single isomer, unassigned) [Compound A-895] has an AC50 of no less than 10000 nM.

In the case of `Cc1ccc(S(=O)(=O)Nc2ccccc2N2CCN(C(=O)C(O)c3ccccc3)CC2)cc1` (stereo not drawn) [Compound A-349, N-{2-[4-(2-hydroxy-2-phenylacetyl)piperazin-1-yl]phenyl}-4-methylbenzene-1-sulfonamide], the AC50 (Homo sapiens, HeLa, 2 h) is reported as no less than 10000 nM.

`CN(C)S(=O)(=O)c1ccc(S(=O)(=O)Nc2cccc(F)c2N2CCC(C)(N)CC2)cc1` [Compound A-899, N4-[2-(4-amino-4-methylpiperidin-1-yl)-3-fluorophenyl]-N1,N1-dimethylbenzene-1,4-disulfonamide] was tested, and the AC50 (Homo sapiens, HeLa, 2 h) was no less than 10000 nM.

In the case of `O=S(=O)(Nc1ccccc1N1CCN(c2ccc(Cl)cc2F)CC1)c1ccccn1` [Compound A-20, N-{2-[4-(4-chloro-2-fluorophenyl)piperazin-1-yl]phenyl}pyridine-2-sulfonamide], the AC50 (Homo sapiens, HeLa, 2 h) is reported as no more than 2000 nM.

`Cc1cc(NS(=O)(=O)c2ccc(S(=O)(=O)N(C)C)cc2)n(C2CCCCC2)c(=O)c1` [Compound A-934, N4-(1-cyclohexyl-4-methyl-6-oxo-1,6-dihydropyridin-2-yl)-N1,N1-dimethylbenzene-1,4-disulfonamide] was tested, and the AC50 (Homo sapiens, HeLa, 2 h) was no less than 10000 nM.

For `COC(C)(C)c1ccc(S(=O)(=O)Nc2ccccc2N2CCC3(CC2)COC(C)(C)C3)cc1` [Compound A-656, N-(2-{3,3-dimethyl-2-oxa-8-azaspiro[4.5]decan-8-yl}phenyl)-4-(2-methoxypropan-2-yl)benzene-1-sulfonamide], the AC50 (Homo sapiens, HeLa, 2 h) was 2010 to 8000 nM.

With `C[C@@H]1CN(CC2CCN(c3c(F)cccc3NS(=O)(=O)c3ccc(S(=O)(=O)N(C)C)cc3)CC2)[C@@H](C)CO1` [Compound A-865, N4-[2-(4-{[(2R,5S)-2,5-dimethylmorpholin-4-yl]methyl}piperidin-1-yl)-3-fluorophenyl]-N1,N1-dimethylbenzene-1,4-disulfonamide] the AC50 (Homo sapiens, HeLa, 2 h) was no more than 2000 nM.

Compound `CC(C)(C)C(=O)N1CCN(c2ccccc2NS(=O)(=O)c2ccc(SC(F)(F)F)cc2)CC1` [Compound A-574, N-{2-[4-(2,2-dimethylpropanoyl)piperazin-1-yl]phenyl}-4-[(trifluoromethyl)sulfanyl]benzene-1-sulfonamide] has an AC50 (Homo sapiens, HeLa, 2 h) of 2010 to 8000 nM.

For `CC(c1cccc(F)c1N1CCC(CN2C[C@@H](C)O[C@@H](C)C2)CC1)S(=O)(=O)c1ccc(S(=O)(=O)C(F)F)cc1` (single isomer, unassigned) [Compound A-808, 4-((1-(2-(1-((4-((difluoromethyl)sulfonyl)phenyl)sulfonyl)ethyl)-6-fluorophenyl)piperidin-4-yl)methyl)-2,6-dimethylmorpholine], the AC50 was no more than 2000 nM.

`CN(C)S(=O)(=O)c1ccc(S(=O)(=O)Nc2ccccc2N2CCC(N)(c3ccc(Cl)cc3F)CC2)cc1` [Compound A-150, N4-{2-[4-amino-4-(4-chloro-2-fluorophenyl)piperidin-1-yl]phenyl}-N1,N1-dimethylbenzene-1,4-disulfonamide] was tested, and the AC50 (Homo sapiens, HeLa, 2 h) was no more than 2000 nM.

`CN(C)S(=O)(=O)c1ccc(S(=O)(=O)Nc2ccccc2C#Cc2ccc(Cl)cc2F)cc1` [Compound A-3, N1-(2-((4-chloro-2-fluorophenyl)ethynyl)phenyl)-N4,N4-dimethylbenzene-1,4-disulfonamide] showed an AC50 (Homo sapiens, HeLa, 2 h) of no more than 2000 nM.

`O=S(=O)(Nc1ccccc1N1CCN(c2ccc(Cl)cc2F)CC1)c1cccnc1` [Compound A-1, N-{2-[4-(4-chloro-2-fluorophenyl)piperazin-1-yl]phenyl}pyridine-3-sulfonamide] gave an AC50 (Homo sapiens, HeLa, 2 h) of no more than 2000 nM.

With `CC(c1cccc(F)c1N1CCC(CN2C3CCC2COC3)CC1)S(=O)(=O)c1ccc(S(=O)(=O)N(C)C)cc1` (stereo not drawn) [Compound A-855, 4-((1-(2-(4-((3-oxa-8-azabicyclo[3.2.1]octan-8-yl)methyl)piperidin-1-yl)-3-fluorophenyl)ethyl)sulfonyl)-N,N-dimethylbenzenesulfonamide] the AC50 was 2010 to 8000 nM.

Work on `CCC(C1CCN(c2c(F)cccc2NS(=O)(=O)c2ccc(S(=N)(=O)N(C)C)cc2)CC1)N1CCOCC1` (stereo not drawn) [Compound A-857, 4-[(3-fluoro-2-{4-[1-(morpholin-4-yl)propyl]piperidin-1-yl}phenyl)sulfamoyl]-N,N-dimethylbenzene-1-sulfonoimidamide] yielded an AC50 (Homo sapiens, HeLa, 2 h) of no more than 2000 nM.

Work on `C[C@H]1COC[C@H](C)N1C[C@H]1CCN(c2c(F)cccc2NS(=O)(=O)c2ccc(S(=O)(=O)N(C)C)cc2)C1` (relative stereo) [Compound A-896, N4-{2-[(3R)-3-{[3,5-dimethylmorpholin-4-yl]methyl}pyrrolidin-1-yl]-3-fluorophenyl}-N1,N1-dimethylbenzene-1,4-disulfonamide] yielded an AC50 (Homo sapiens, HeLa, 2 h) of no more than 2000 nM.
